According to US20250268870A1, “SMALL MOLECULE INDUCERS OF CARDIOMYOCYTES TO IMPROVE CARDIAC STRUCTURE AND FUNCTION” (UNIVERSITY OF MARYLAND, BALTIMORE, priority 2022, published 2025):

Columns and labels:
iDCM-CMs [1] = experiment: Sarcomere formation in C19-treated iDCM-CMs (confocal imaging); format: cell-based, human; conditions: C19-treated iDCM-CMs vs untreated iDCM-CMs
CMs = conditions: previously shown; cited from earlier work
iDCM-CMs [2] = experiment: PCNT / MTOC localization (centriolar, split, perinuclear) in C19-treated iDCM-CMs, quantitated by a blinded observer; format: cell-based, human; conditions: for initiation of the perinuclear MTOC: iDCM-CMs (cDCM-CMs) treated with C19
iDCM-CMs [3] = experiment: Cell shortening (contractility) on Matrigel mattress, edge detection; format: cell-based, human
RTTN = experiment: Knockdown of RTTN in zebrafish embryos: incidence of pericardial edema; format: in vivo; conditions: zebrafish embryos at 48 hours post-fertilization; Vehicle=8.4%
Experimental: Single mating pairs were bred overnight, and embryos were kept at 28.5° C., consistent with standard practices. Injections were performed using an Eppendorf™ FemtoJet 4i microinjector. Needles were pulled using a Sutter Instrument Co. Flaming/Brown Micropipette Puller Model P-97 with filaments from World Precision Instruments (Item #TW100F-4) (heat=90, pull=30, and velocity=7). The translational blocking morpholino oligonucleotide 5′-[…]-3′ (SEQ ID NO: 41) was purchased from GeneTools™. mRNA was generated from pcDNA-dCas9 (Addgene™) using the mMESSAGE mMACHINE T7 ULTRA Transcription Kit from Invitrogen™. Alt-R CRISPR-Cas9 sgRNA, sgRNA #1: 5′-[…]-3 (SEQ ID NO:42) and sgRNA #2: 5′-[…]-3′ (SEQ ID NO:43) were purchased from Integrated DNA Technologies. Wild-type NHGRI embryos were injected at the 1-2 cell stage with MO (6 ng) or dCas9 mRNA (1 ng) with or without the CRISPRi sgRNA (0.5 ng). At 8 hours post fertilization (hpf), E3 water was replaced with 0.003% 1-phenyl-2-thiourea (PTU) in E3, and the embryos remained in PTU until they were phenotyped for cardiac edema, and heart morphology at 48 hpf.

Molecule	sarcomere formation (iDCM-CMs [1])	centrosome reduction in CMs (CMs)	initiation of the perinuclear MTOC (iDCM-CMs [2])	initiation of the perinuclear MTOC (iDCM-CMs [2]; listed as C192)	PCNT perinuclear, % of CMs (iDCM-CMs [2]; iDCM-CMs + 10 μM C19 for 48 hours from D30, D32 CMs, control-CMs 23.1%, untreated iDCM-CMs 7.6%, p=0.0082)	cell shortening versus healthy control-CMs (iDCM-CMs [3]; D40 C19-treated iDCM-CMs vs control-CMs, p=0.682 (NS))	contractility (% cell shortening) (iDCM-CMs [3]; D40 C19-treated iDCM-CMs vs untreated iDCM-CMs, p=0.001)	embryos with large pericardial edema (RTTN)
OCCCCOc1nsnc1-c1ccc(Cl)c(Cl)c1 [C19]	improved sarcomere formation	induce centrosome reduction	improved initiation of the perinuclear MTOC	restored initiation of the perinuclear MTOC	23.6%	comparable levels of cell shortening	significantly improved	–
MO: translational blocking morpholino oligonucleotide 5′-TCTTTATGAGTGACGATAACTCCAT-3′ (SEQ ID NO: 41) against zebrafish RTTN (all phosphorodiamidate morpholino (PMO))	–	–	–	–	–	–	–	45.6%
